Measurements reported in patent US4324728A, “Compound nanaomycin A and derivatives thereof and a process for producing the same” (The Kitasato Institute, priority 1976, dated 1982).
Values after ≈ are worked out from the molar mass of the structure shown.

Key:
Trichophyton pedis 804 = assay: Minimal inhibitory concentration (agar); format: cell-based; conditions: Trichophyton pedis, 804, 96 h, pH 6.4, potato agar, pH 6.4, 4 days, 27° C.; read-out: MIC
[1] = test system: Escherichia coli NIHJ (JC-2); assay: Minimal inhibitory concentration (agar); format: cell-based; conditions: 48 h, pH 7, nutrient agar, pH 7.0, 2 days, 37° C.
Experimental: (§1) Medium N nutrient agar (pH 7.0, 2 days, 37° C.)
(§2) MIC Minimal inhibitory concentration
(§3) N nutrient agar (pH 7.0, 2 days, 37° C.)

[2] = test system: parasite of the genus Tricophyton; assay: Therapeutic effect on infectious diseases in guinea pigs and cattle; format: in vivo; conditions: concentration 0.01-1%
Experimental: (§4) When dermatomycosis of cattle caused by mass infection of Trichophyton verrucosum is treated with nanaomycin A, nanaomycin A is dissolved or suspended in a suitable carrier, for example, olive oil, and is coated on the affected part directly with or without removal of the scales. […] The results obtained by once-coating of nanaomycin A and by twice-coating (the second coating is carried out a week after the first coating) are shown in Tables 2 and 3, respectively.

fungi = assay: Antifungal activity (in words); format: cell-based
Pseudomonas aeruginosa = assay: Minimal inhibitory concentration (agar); format: cell-based; conditions: 48 h, nutrient agar, pH 7.0, 2 days, 37° C.
Experimental: as §1, §2, §3

Shigella flexneri = assay: Minimal inhibitory concentration (agar); format: cell-based; conditions: 48 h, nutrient agar, pH 7.0, 2 days, 37° C.
Experimental: as §1, §2, §3

Trichophyton verrucosum = assay: Treatment of dermatomycosis of cattle; format: in vivo; parameters: key: +++: complete removal of scales and; ++: a little scales remained; +: removal of a part of scales; -: no removal of scale and no recovery
Experimental: as §4, with “respectively. | I : direct coating on affected part | II : coating after removing the scales of affected | Con. : concentration of agent” for “respectively.”

[3] = test system: fungi belonging to the genus Trichophyton; assay: Growth inhibition (text summary of Table 1); format: cell-based; conditions: 96 h, some fungi of the genus, read-out: concentration at which growth is inhibited
Experimental: | P potato agar (pH 6.4, 4 days, 27° C.)

Staphylococcus aureus = assay: Growth inhibition (text summary of Table 1); format: cell-based; conditions: 48 h, read-out: concentration at which growth is inhibited
Experimental: as §1

Escherichia coli NIHJ = assay: Minimal inhibitory concentration (agar); format: cell-based; conditions: 48 h, nutrient agar, pH 7.0, 2 days, 37° C.
Aspergillus fumigatus = assay: Minimal inhibitory concentration (agar dilution method); format: cell-based; conditions: Aspergillus fumigatus, 96 h; potato agar, pH 6.4, 27° C., 4 days; read-out: Minimal Inhibitory Con.
Experimental: (§5) Minimal inhibitory concentration was assayed by agar dilution method
(§6) (potato agar, pH 6.4, 27° C., 4 days).

Microsporum gypseum = assay: as above; format: cell-based; conditions: Nannizzia gypsea, 96 h; potato agar, pH 6.4, 27° C., 4 days; read-out: Minimal Inhibitory Con.
Experimental: as §5, §6

[4] = once-coating, I direct coating, 0.1 mg/ml
[5] = once-coating, I direct coating, 1 mg/ml
[6] = once-coating, I direct coating, 10 mg/ml
[7] = once-coating, II after removing scales, 0.1 mg/ml
[8] = once-coating, II after removing scales, 1 mg/ml
[9] = once-coating, II after removing scales, 10 mg/ml
[10] = twice-coating, I direct coating, 0.1 mg/ml
[11] = twice-coating, I direct coating, 1 mg/ml
[12] = twice-coating, I direct coating, 10 mg/ml
[13] = twice-coating, II after removing scales, 0.1 mg/ml
[14] = twice-coating, II after removing scales, 1 mg/ml
[15] = twice-coating, II after removing scales, 10 mg/ml

CC(=O)Oc1cccc2c1C(=O)C1=C(CC(CC(=O)O)OC1C)C2=O (centres unmarked) [Acetylnanaomycin A, acetylnanaomycin A]
MIC (Trichophyton pedis 804): 0.8 µg/mL (≈ 2.32 µM)
MIC [1]: > 100 µg/mL
therapeutic effect on Trichophyton infectious diseases [2]: superior therapeutic effect to nanaomycin A
activity against fungi (fungi): as strong activity against fungi and mycoplasmas as nanaomycin A

CC1OC(CC(=O)O)CC2=C1C(=O)c1c(O)cccc1C2=O (centres unmarked) [Nanaomycin A, nanaomycin A]
MIC (Pseudomonas aeruginosa): 500 µg/mL (≈ 1650 µM)
MIC (Shigella flexneri): 31.3 µg/mL (≈ 104 µM)
Result after 1 week (Trichophyton verrucosum; [4]): ++
Result after 2 weeks (Trichophyton verrucosum; [4]): ++
Result after 3 weeks (Trichophyton verrucosum; [4]): +++
Result after 4 weeks (Trichophyton verrucosum; [4]): +++
Result after 1 week (Trichophyton verrucosum; [5]): +++
Result after 2 weeks (Trichophyton verrucosum; [5]): +++
Result after 3 weeks (Trichophyton verrucosum; [5]): +++
Result after 4 weeks (Trichophyton verrucosum; [5]): +++
Result after 1 week (Trichophyton verrucosum; [6]): +++
Result after 2 weeks (Trichophyton verrucosum; [6]): +++
Result after 3 weeks (Trichophyton verrucosum; [6]): +++
Result after 4 weeks (Trichophyton verrucosum; [6]): +++
Result after 1 week (Trichophyton verrucosum; [7]): +++
Result after 2 weeks (Trichophyton verrucosum; [7]): +++
Result after 3 weeks (Trichophyton verrucosum; [7]): +++
Result after 4 weeks (Trichophyton verrucosum; [7]): +++
Result after 1 week (Trichophyton verrucosum; [8]): +++
Result after 2 weeks (Trichophyton verrucosum; [8]): +++
Result after 3 weeks (Trichophyton verrucosum; [8]): +++
Result after 4 weeks (Trichophyton verrucosum; [8]): +++
Result after 1 week (Trichophyton verrucosum; [9]): +++
Result after 2 weeks (Trichophyton verrucosum; [9]): +++
Result after 3 weeks (Trichophyton verrucosum; [9]): +++
Result after 4 weeks (Trichophyton verrucosum; [9]): +++
Result after 1 week (Trichophyton verrucosum; [10]): ++
Result after 2 weeks (Trichophyton verrucosum; [10]): +++
Result after 3 weeks (Trichophyton verrucosum; [10]): +++
Result after 4 weeks (Trichophyton verrucosum; [10]): +++
Result after 1 week (Trichophyton verrucosum; [11]): ++
Result after 2 weeks (Trichophyton verrucosum; [11]): ++
Result after 3 weeks (Trichophyton verrucosum; [11]): +++
Result after 4 weeks (Trichophyton verrucosum; [11]): +++
Result after 1 week (Trichophyton verrucosum; [12]): +++
Result after 2 weeks (Trichophyton verrucosum; [12]): +++
Result after 3 weeks (Trichophyton verrucosum; [12]): +++
Result after 4 weeks (Trichophyton verrucosum; [12]): +++
Result after 1 week (Trichophyton verrucosum; [13]): +++
Result after 2 weeks (Trichophyton verrucosum; [13]): +++
Result after 3 weeks (Trichophyton verrucosum; [13]): +++
Result after 4 weeks (Trichophyton verrucosum; [13]): +++
Result after 1 week (Trichophyton verrucosum; [14]): +++
Result after 2 weeks (Trichophyton verrucosum; [14]): +++
Result after 3 weeks (Trichophyton verrucosum; [14]): +++
Result after 4 weeks (Trichophyton verrucosum; [14]): +++
Result after 1 week (Trichophyton verrucosum; [15]): +++
Result after 2 weeks (Trichophyton verrucosum; [15]): +++
Result after 3 weeks (Trichophyton verrucosum; [15]): +++
Result after 4 weeks (Trichophyton verrucosum; [15]): +++
MIC [3]: ≤ 3.1 µg/mL
MIC (Staphylococcus aureus): 2 to 8 µg/mL (≈ 6.62 to 26.5 µM)
MIC (Escherichia coli NIHJ): 31.3 µg/mL (≈ 104 µM)
MIC (Aspergillus fumigatus): 6.3 µg/mL (≈ 20.8 µM)
MIC (Microsporum gypseum): 0.8 µg/mL (≈ 2.65 µM)
